Measured values: US20030040485A1, “alpha/beta-adrenoceptors blockers and angiotensin converting enzyme inhibitors derived from hydroxyphenyl carboxylic acid and alcohol” (priority 2001, published 2003)

Tests used:
[1] = test system: β1-adrenoceptor (right atrium); assay: β1-adrenoceptor antagonism, spontaneously beating right atrium, pA2 vs L-isoproterenol; details: for β1/β2 Ratio: antilogarithm of difference between mean pA2 of right atrium and trachea; for β1 pA2 value, Right atrium: Schild plot, mean ± SEM of six to eight experiments
Protocol: The spontaneously-beating right atria was clipped on both end by heart shaped clips, where one end was fixed at the bottom of 10 ml of tissue bath made of physiological saline solution, and temperature maintained at 37° C. The other end of the atria was connected to a force transducer, and isometric contractions and beating rate of the right atria were recorded by COULBOURN AT-High-Speed VideoFigure. After the samples were given 250 mg of contractions and reach equilibrium the following experiments were carried out:
When the spontaneously beating rate of right atria reached a certain stability, cumulative administration of L-isoproterenol from 1×10^−10˜3×10^−10 M caused the heart rate to increase continuously, and a cumulative dose-response curve was obtained. Then the L-isoproterenol was thoroughly washed off with Kreb's solution to recover the right atria's heart rate stability. After the equilibrum was reached again for at least 60 minutes, different concentrations (10^−7, 10^−6, 10^−5 M) of compounds were added. 30 minutes later, cumulative administration of L-isoproterenol from 1×10^−10˜3×10^−10 M were carried out again, and another new cumulative dose-response curve was obtained. Administration of L-isoproterenol started from concentration 1×10^−10 M, and the concentration was raised 0.5 log each time for a total of six times. Cumulative administration interval was when the previous concentration reached its greatest effect, the next concentration would be immediately given. […] In other groups of rats, after separate administration of test compounds, their pA2 values were obtained.
pA2=−Log KB Log(DRADJ−1)=n log[B]−LogKB

[2] = test system: blood pressure of normotensive male Wistar rats; assay: Heart rate and blood pressure in living rat (i.v., anaesthetized); type: in vivo; details: maximal decrease, 2 mg/kg i.v.
Source text: Normotensive Male Wistar rats (NTRs), weighing 200˜300 g were abdominal anaesthetized with pentobarbital sodium. Tracheal was cannulated to maintain normal respiration. Polyethylene tube was inserted into the left femoral vein to facilitate drug administration. A 3-way stopcock was used, with one end comnected to a syringe for drug injection, while the other end was connected to the syringe filled with physiological saline. The latter was used to prevent residual drugs in the polyethylene tube after injection, which would affect experimental accuracy.
The right femoral artery was also inserted with polyethylene, and a 3-way stopcock was used tool, where one end was connected to heparin solution to prevent embolism. The other end was comnected to a Disposable Diaphragm Dome, TA1019, and linked to a pressure transducer (Model P10EZ; Spectramed, Oxnard, Calif., USA). Through an amplifier, a recorder recorded the overall and average arterial pressure; heart rate to evaluate the effect of drug on blood pressure and heart rate. Different concentrations 0.1, 1.0, 2.0, 3.0 mg/kg of test compounds were given to the rats via femoral vein and the differences in the heart rate and blood pressure were compared. Table 2 shown maximal decrease of blood pressure affect of compounds after given 2.0 mg/kg test compounds to the rats.

[3] = biological target: T1, angiotensin converting enzyme (ACE) (Rattus norvegicus, UniProt P47820); assay: ACE inhibitory activity in rat serum (Hycor kit, [3H]-hippuryl-glycyl-glycine); type: biochemical; details: mean of three samples
T1 construct: from tissue; host or cells: rat serum
T1 sequence (P47820 36-1238 limits assumed): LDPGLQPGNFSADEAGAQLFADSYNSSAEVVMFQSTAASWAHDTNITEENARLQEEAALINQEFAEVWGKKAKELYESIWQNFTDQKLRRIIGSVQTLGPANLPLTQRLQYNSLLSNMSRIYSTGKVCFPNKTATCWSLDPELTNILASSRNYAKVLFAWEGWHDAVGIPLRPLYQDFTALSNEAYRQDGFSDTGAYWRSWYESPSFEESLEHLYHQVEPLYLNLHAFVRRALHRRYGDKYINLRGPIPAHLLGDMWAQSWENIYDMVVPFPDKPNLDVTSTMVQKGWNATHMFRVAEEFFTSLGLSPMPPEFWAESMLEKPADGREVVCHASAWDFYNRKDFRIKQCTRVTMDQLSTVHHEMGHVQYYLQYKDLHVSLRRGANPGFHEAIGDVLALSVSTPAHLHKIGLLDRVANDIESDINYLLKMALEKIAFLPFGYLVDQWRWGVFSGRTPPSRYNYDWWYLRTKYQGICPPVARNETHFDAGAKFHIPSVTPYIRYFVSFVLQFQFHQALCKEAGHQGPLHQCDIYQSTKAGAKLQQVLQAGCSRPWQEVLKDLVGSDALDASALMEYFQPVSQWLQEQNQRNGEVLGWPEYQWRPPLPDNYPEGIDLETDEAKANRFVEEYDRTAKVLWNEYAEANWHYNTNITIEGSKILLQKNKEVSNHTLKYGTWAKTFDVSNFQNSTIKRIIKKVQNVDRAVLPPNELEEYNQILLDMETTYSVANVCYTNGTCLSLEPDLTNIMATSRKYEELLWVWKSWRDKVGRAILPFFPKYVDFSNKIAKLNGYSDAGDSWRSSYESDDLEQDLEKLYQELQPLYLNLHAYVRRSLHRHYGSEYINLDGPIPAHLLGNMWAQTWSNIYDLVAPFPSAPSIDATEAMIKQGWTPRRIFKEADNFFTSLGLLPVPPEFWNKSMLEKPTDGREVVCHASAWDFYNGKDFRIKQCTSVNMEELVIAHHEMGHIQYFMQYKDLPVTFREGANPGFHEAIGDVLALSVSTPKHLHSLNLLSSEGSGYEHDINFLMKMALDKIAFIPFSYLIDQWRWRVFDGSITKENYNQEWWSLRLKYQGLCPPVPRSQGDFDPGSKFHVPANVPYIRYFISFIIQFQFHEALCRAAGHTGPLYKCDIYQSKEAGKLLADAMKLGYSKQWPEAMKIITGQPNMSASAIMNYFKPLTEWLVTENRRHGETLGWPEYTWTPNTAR
Protocol: ACE value in serum was determined by Hycor kit, rat serum were cultured in 37° C. of [^3H]-hippuryl-glycyl-glycine for 60 minutes. While [^3H]-hippuryl-glycyl-glycine contains three peptide. [^3H] hippuric acid was obtained when extracted of culture solution with ethyl acetate, the content be determined by spectrophotometer. The content in serum sample was as the control group after it was added with 10^−8M, 10^−7M, 10^−6M compounds, then dissolved in PBS.

[4] = test system: α1-adrenoceptor (aorta); assay: α-adrenoceptor antagonism, isolated rat aorta, pA2 vs norepinephrine; design: species or system Wistar rat; details: Schild plot, mean ± SEM of six to eight experiments
Protocol: Vascular α-adrenoceptor blocking activity was evaluated in the Wistar rat aorta preparation. Isolated rat aorta preparations were mounted in organ bath and suspended in Krebs solution at 37° C. […] or 75 mM KCl was added to the bath medium after a control concentration-response curve to norepinephrine had been obtained. The tissue was exposed to test compounds for 30 min before rechallenging with norepinephrine. Inhibitions were expressed as percentages of the maximum contraction obtained by the challenge of the tissues with norepinephrine. The 70 mM NaCl on 75 mM KCl solution may to replace with equimolar KCl, if necessary.
The methods published by Huang Y C. et. al. in J Cardiovasc Pharmacol.34, pp.10-20 (1999) and Drug Devel Res. 47, 77-89 (1999). Through referenced and modified method to evaluate, test compounds whether have α1-adrenergic and sertoninergic effect.
Isolated Wistar rat aorta preparations were mounted in organ bath and suspended in Krebs solution (NaCl, 118 mM, KCl, 4.8 mM; CaCl,2.5 mM; MgSO4,1.2 mM; K2PO4,1.2 Mm; […] Mm; glucose, 11 mM) at 37° C. under 1 g resting tension.
Upon balancing for 60 minutes, 10^−10-10^−4 M norepinephrine is administered directly from low concentration to high using 0.5 log unit to gradually increase until the maximum reaction is reached, and this act as the control unit. Then different concentrations of the synthetic testing compounds, 10^−7 M, 10^−6 M, or 10^−5M, are used, and upon 30 minutes of reaction, norepinephrine is used again to complete the cumulative dose. The EC50 value of blocking […] may be obtained from observation of the suppressing effects caused by different concentrations of the synthetic testing compound.
The equation is as follows: […]

SMILES	β1/β2 Ratio [1]	β1 pA2 value, Right atrium [1]	Decrease of blood pressure [2]	Inhibitory activity of ACE, In Rat Serum ([3]; 10^−6M)	Inhibitory activity of ACE, In Rat Serum ([3]; 10^−7M)	Inhibitory activity of ACE, In Rat Serum ([3]; 10^−8M)	α1 pA2 value, Aorta [4]
CCOC(=O)C(CCc1ccc(OCC(O)CNCCOc2ccccc2OC)cc1)NC(C)C(=O)N1CCCC1C(=O)O (mixture of isomers) [compound 6, Labetapril]	1.4	5.41	65 ± 9.2 mmHg	81%	67%	28%	6.93
CCOC(=O)C(CCc1ccccc1)NC(C)C(=O)N1CCCC1C(=O)OCc1ccc(OCC(O)CNC(C)(C)C)c(OC)c1 (stereo not shown) [compound 7, Vanynolpril]	1.9	5.87	55 ± 6.3 mmHg	83%	74%	35%	
